Experimental findings from patent US20110195900A1, “PEPTIDIC PTH RECEPTOR AGONISTS” (FERRING B.V., priority 2008, published 2011) are described below.

In general, EC50 refers to the concentration giving half of the maximal effect.

Non-standard residues stand in square brackets, D forms with d. Residues, ends and D or L forms follow the SMILES beside them. 1Nal = N[C@@H](Cc1cccc2ccccc12)C(=O)O; 2Nal = N[C@@H](Cc1ccc2ccccc2c1)C(=O)O; β3hI = CC[C@H](C)[C@H](N)CC(=O)O; β3hR = N=C(N)NCCC[C@H](N)CC(=O)O; β3hF = N[C@H](CC(=O)O)Cc1ccccc1; hSer = N[C@@H](CCO)C(=O)O; Nle = CCCC[C@H](N)C(=O)O; Aib = CC(C)(N)C(=O)O; βAla = NCCC(=O)O

This assay deals with T1, human PTH-1 receptor (Homo sapiens, UniProt Q03431).
T1 construct: expressed in transfected cells; host or cells: HEK-293
T1 sequence (Q03431 27-593): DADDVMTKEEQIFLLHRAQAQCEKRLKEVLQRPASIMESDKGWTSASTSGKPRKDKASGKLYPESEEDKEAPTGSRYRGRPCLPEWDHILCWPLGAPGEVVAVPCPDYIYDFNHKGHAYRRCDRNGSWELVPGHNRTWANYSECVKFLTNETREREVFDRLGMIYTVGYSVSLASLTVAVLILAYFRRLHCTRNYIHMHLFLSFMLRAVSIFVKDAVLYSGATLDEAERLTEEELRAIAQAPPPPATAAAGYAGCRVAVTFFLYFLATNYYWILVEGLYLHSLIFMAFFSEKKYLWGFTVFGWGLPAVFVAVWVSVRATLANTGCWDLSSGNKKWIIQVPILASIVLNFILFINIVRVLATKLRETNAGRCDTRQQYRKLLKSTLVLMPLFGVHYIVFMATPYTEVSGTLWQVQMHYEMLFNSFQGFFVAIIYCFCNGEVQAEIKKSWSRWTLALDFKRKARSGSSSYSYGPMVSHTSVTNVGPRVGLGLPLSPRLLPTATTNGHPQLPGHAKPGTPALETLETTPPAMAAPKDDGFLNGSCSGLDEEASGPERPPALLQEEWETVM
Put plainly: Reporter gene assay (CRE-luciferase) for agonist activity in transiently transfected HEK-293 cells. It counts as cell-based. Particulars: for hPTHR-2/hPTHR-1: selectivity for hPTH-1 receptor over hPTH-2 receptor. The protocol: Agonist activity of compounds on the human PTH-1 receptor was determined in a reporter gene assay by transiently transfecting HEK-293 cells with plasmids encoding human PTH-1 receptor under control of the SV40 promoter and a luciferase reporter gene under control of cAMP responsive elements (CRE). See Himmler et al, J. Recept. Res. 13 (1993) 79-94, for further guidance on this assay. Transfected cells were exposed to serial dilutions of compounds for 4-5 hours followed by lysis of cells, determination of luciferase activity, and determination of compound efficacies and EC50 values through non-linear regression.
PTH (1-34) was used as an internal control in each experiment and compounds were tested in at least three independent experiments. To determine selectivity, compounds were tested in luciferase-based transcriptional reporter gene assays expressing the human PTH-2 receptor.
On the technique in general: In a reporter assay the amount or activity of a reporter protein is the signal.

Turning to `CCCC[C@H](NC(=O)[C@H](CC(C)C)NC(=O)[C@H](CCC(N)=O)NC(=O)[C@@H](NC(=O)[C@H](CCC(=O)O)NC(=O)[C@H](CO)NC(=O)[C@@H](NC(=O)C(C)(C)N)C(C)C)[C@@H](C)CC)C(=O)N[C@@H](Cc1c[nH]cn1)C(=O)N[C@@H](CC(N)=O)C(=O)N[C@@H](CC(C)C)C(=O)NCC(=O)N[C@@H](CCCCN)C(=O)N[C@@H](Cc1c[nH]cn1)C(=O)N[C@@H](CC(C)C)C(=O)N[C@@H](CC(N)=O)C(=O)N[C@@H](CO)C(=O)N[C@H](CC(=O)N[C@@H](CCC(=O)O)C(=O)N[C@@H](CCCNC(=N)N)C(=O)N[C@H](C(=O)N[C@@H](CCC(=O)O)C(=O)N[C@@H](Cc1cccc2ccccc12)C(=O)N[C@@H](CC(C)C)C(=O)N[C@@H](CCCNC(=N)N)C(=O)N[C@@H](CCCCN)C(=O)N[C@@H](CC(C)C)C(=O)N[C@@H](CC(C)C)C(=O)N[C@@H](CCC(N)=O)C(=O)N[C@@H](CC(=O)O)C(=O)N[C@H](C(=O)N[C@@H](Cc1c[nH]cn1)C(=O)N[C@@H](CC(N)=O)C(=O)N[C@@H](Cc1ccccc1)C(N)=O)C(C)C)C(C)C)Cc1ccccc1` [SEQ ID NO: 42, [Aib^1, Nle^8, β-hPhe^18,1-Nal^23, Leu^27 hPTH (1-34)-NH2] (H-[Aib]VSEIQL[Nle]HNLGKHLNS[β3hF]ERVE[1Nal]LRKLLQDVHNF-NH2; N-terminus assumed), the EC50 was found to be 0.06 nM. Moreover, the hPTHR-2/hPTHR-1 (Table 3, ratio of EC50 values) was found to be 88.
As for `CCCC[C@H](NC(=O)[C@H](CC(C)C)NC(=O)[C@H](CCC(N)=O)NC(=O)[C@@H](NC(=O)[C@H](CCC(=O)O)NC(=O)[C@H](CO)NC(=O)[C@@H](NC(=O)[C@@H](N)CO)C(C)C)[C@@H](C)CC)C(=O)N[C@@H](Cc1c[nH]cn1)C(=O)N[C@@H](CC(N)=O)C(=O)N[C@@H](CC(C)C)C(=O)NCC(=O)N[C@@H](CCCCN)C(=O)N[C@@H](Cc1c[nH]cn1)C(=O)N[C@@H](CC(C)C)C(=O)N[C@@H](CC(N)=O)C(=O)N[C@@H](CO)C(=O)N[C@@H](CCCNC(=N)N)CC(=O)N[C@@H](CCC(=O)O)C(=O)N[C@@H](CCCNC(=N)N)C(=O)N[C@H](C(=O)N[C@@H](CCC(=O)O)C(=O)N[C@@H](Cc1ccc2ccccc2c1)C(=O)N[C@@H](CC(C)C)C(=O)N[C@@H](CCCNC(=N)N)C(=O)N[C@@H](CCCCN)C(=O)N[C@@H](CCCCN)C(=O)N[C@@H](CC(C)C)C(=O)N[C@@H](CCC(N)=O)C(=O)N[C@@H](CC(=O)O)C(=O)N[C@H](C(=O)N[C@@H](Cc1c[nH]cn1)C(=O)N[C@@H](CC(N)=O)C(=O)N[C@@H](Cc1ccccc1)C(N)=O)C(C)C)C(C)C` [SEQ ID NO: 54, [Nle^8, β-hArg^18,2-Nal^23] hPTH (1-34)-NH2] (H-SVSEIQL[Nle]HNLGKHLNS[β3hR]ERVE[2Nal]LRKKLQDVHNF-NH2), under “Table 4 comparison data, ratio of EC50 values”, the “Selectivity hPTHR-2/hPTHR-1” value worked out at 147.
Regarding `CCCC[C@H](NC(=O)[C@H](CC(C)C)NC(=O)[C@H](CCC(N)=O)NC(=O)[C@@H](NC(=O)[C@H](CCC(=O)O)NC(=O)[C@H](CO)NC(=O)[C@@H](NC(=O)[C@@H](N)CO)C(C)C)[C@@H](C)CC)C(=O)N[C@@H](Cc1c[nH]cn1)C(=O)N[C@@H](CC(N)=O)C(=O)N[C@@H](CC(C)C)C(=O)NCC(=O)N[C@@H](CCCCN)C(=O)N[C@@H](Cc1c[nH]cn1)C(=O)N[C@@H](CC(C)C)C(=O)N[C@@H](CC(N)=O)C(=O)N[C@@H](CO)C(=O)N[C@H](CC(=O)N[C@@H](CCC(=O)O)C(=O)N[C@@H](CCCNC(=N)N)C(=O)N[C@H](C(=O)N[C@@H](CCC(=O)O)C(=O)N[C@@H](Cc1cccc2ccccc12)C(=O)N[C@@H](CC(C)C)C(=O)N[C@@H](CCCNC(=N)N)C(=O)N[C@@H](CCCCN)C(=O)N[C@@H](CC(C)C)C(=O)N[C@@H](CC(C)C)C(=O)N[C@@H](CCC(N)=O)C(=O)N[C@@H](CC(=O)O)C(=O)N[C@H](C(=O)N[C@@H](Cc1c[nH]cn1)C(=O)N[C@@H](CC(N)=O)C(=O)N[C@@H](Cc1ccccc1)C(=O)O)C(C)C)C(C)C)[C@@H](C)CC` [SEQ ID NO: 9, [Nle^8, β-hIle^18,1-Nal^23, Leu^27] hPTH (1-34)-OH] (H-SVSEIQL[Nle]HNLGKHLNS[β3hI]ERVE[1Nal]LRKLLQDVHNF-OH; N-terminus assumed), the response was half-maximal at 0.14 nM (EC50). Further, the hPTHR-2/hPTHR-1 (Table 3, ratio of EC50 values) came out at 158.
For the compound `CCCC[C@H](NC(=O)[C@H](CC(C)C)NC(=O)[C@H](CCC(N)=O)NC(=O)[C@@H](NC(=O)[C@H](CCC(=O)O)NC(=O)[C@H](CO)NC(=O)[C@@H](NC(=O)C(C)(C)N)C(C)C)[C@@H](C)CC)C(=O)N[C@@H](Cc1c[nH]cn1)C(=O)N[C@@H](CC(N)=O)C(=O)N[C@@H](CC(C)C)C(=O)NCC(=O)N[C@@H](CCCCN)C(=O)N[C@@H](Cc1c[nH]cn1)C(=O)N[C@@H](CC(C)C)C(=O)N[C@@H](CC(N)=O)C(=O)N[C@H](CC(=O)N[C@@H](CCOC)C(=O)N[C@@H](CCC(=O)O)C(=O)N[C@@H](CCCNC(=N)N)C(=O)N[C@H](C(=O)N[C@@H](CCC(=O)O)C(=O)N[C@@H](Cc1cccc2ccccc12)C(=O)N[C@@H](CC(C)C)C(=O)N[C@@H](CCCNC(=N)N)C(=O)N[C@@H](CCCCN)C(=O)N[C@@H](CC(C)C)C(=O)N[C@@H](CC(C)C)C(=O)N[C@@H](CCC(N)=O)C(=O)N[C@@H](CC(=O)O)C(=O)N[C@H](C(=O)N[C@@H](Cc1c[nH]cn1)C(=O)N[C@@H](CC(N)=O)C(=O)N[C@@H](Cc1ccccc1)C(N)=O)C(C)C)C(C)C)Cc1ccccc1` [SEQ ID NO: 48, [Aib^1, Nle^8, β-hPhe^17, hSer(OMe)^18,1-Nal^23, Leu^27] hPTH-(1-34)-NH2] (H-[Aib]VSEIQL[Nle]HNLGKHLN[β3hF][hSer](Me)ERVE[1Nal]LRKLLQDVHNF-NH2), the EC50 stood at 0.1 nM. Further, the hPTHR-2/hPTHR-1 (Table 3, ratio of EC50 values) was 1152.
For the compound `CCCC[C@H](NC(=O)[C@H](CC(C)C)NC(=O)[C@H](CCC(N)=O)NC(=O)[C@@H](NC(=O)[C@H](CCC(=O)O)NC(=O)[C@H](CO)NC(=O)[C@@H](NC(=O)C(C)(C)N)C(C)C)[C@@H](C)CC)C(=O)N[C@@H](Cc1c[nH]cn1)C(=O)N[C@@H](CC(N)=O)C(=O)N[C@@H](CC(C)C)C(=O)NCC(=O)N[C@@H](CCCCN)C(=O)N[C@@H](Cc1c[nH]cn1)C(=O)N[C@@H](CC(C)C)C(=O)N[C@@H](CC(N)=O)C(=O)NCCC(=O)N[C@@H](CCOC)C(=O)N[C@@H](CCC(=O)O)C(=O)N[C@@H](CCCNC(=N)N)C(=O)N[C@H](C(=O)N[C@@H](CCC(=O)O)C(=O)N[C@@H](Cc1cccc2ccccc12)C(=O)N[C@@H](CC(C)C)C(=O)N[C@@H](CCCNC(=N)N)C(=O)N[C@@H](CCCCN)C(=O)N[C@@H](CC(C)C)C(=O)N[C@@H](CC(C)C)C(=O)N[C@@H](CCC(N)=O)C(=O)N[C@@H](CC(=O)O)C(=O)N[C@H](C(=O)N[C@@H](Cc1c[nH]cn1)C(=O)N[C@@H](CC(N)=O)C(=O)N[C@@H](Cc1ccccc1)C(N)=O)C(C)C)C(C)C` [SEQ ID NO: 3, [Aib^1, Nle^8, β-Ala^17, hSer(OMe)^18,1-Nal^23, Leu^27] hPTH (1-34)-NH2] (H-[Aib]VSEIQL[Nle]HNLGKHLN[βAla][hSer](Me)ERVE[1Nal]LRKLLQDVHNF-NH2; N-terminus assumed), the EC50 worked out at 0.06 nM. Where the note is “Table 3”, the “selectivity for the hPTH-1 receptor over the hPTH-2 receptor” value is 766 fold. The hPTHR-2/hPTHR-1 (Table 3, ratio of EC50 values) is on record as 766.
For the compound `CCCC[C@H](NC(=O)[C@H](CC(C)C)NC(=O)[C@H](CCC(N)=O)NC(=O)[C@@H](NC(=O)[C@H](CCC(=O)O)NC(=O)[C@H](CO)NC(=O)[C@@H](NC(=O)[C@@H](N)CO)C(C)C)[C@@H](C)CC)C(=O)N[C@@H](Cc1c[nH]cn1)C(=O)N[C@@H](CC(N)=O)C(=O)N[C@@H](CC(C)C)C(=O)NCC(=O)N[C@@H](CCCCN)C(=O)N[C@@H](Cc1c[nH]cn1)C(=O)N[C@@H](CC(C)C)C(=O)N[C@@H](CC(N)=O)C(=O)N[C@@H](CO)C(=O)N[C@H](CC(=O)N[C@@H](CCC(=O)O)C(=O)N[C@@H](CCCNC(=N)N)C(=O)N[C@H](C(=O)N[C@@H](CCC(=O)O)C(=O)N[C@@H](Cc1cccc2ccccc12)C(=O)N[C@@H](CC(C)C)C(=O)N[C@@H](CCCNC(=N)N)C(=O)N[C@@H](CCCCN)C(=O)N[C@@H](CC(C)C)C(=O)N[C@@H](CC(C)C)C(=O)N[C@@H](CCC(N)=O)C(=O)N[C@@H](CC(=O)O)C(=O)N[C@H](C(=O)N[C@@H](Cc1c[nH]cn1)C(=O)N[C@@H](CC(N)=O)C(=O)N[C@@H](CCC(=O)O)C(N)=O)C(C)C)C(C)C)[C@@H](C)CC` [SEQ ID NO: 29, [Nle^8, β-hIle^18,1-Nal^23, Leu^27, Glu^34] hPTH (1-34)-NH2] (H-SVSEIQL[Nle]HNLGKHLNS[β3hI]ERVE[1Nal]LRKLLQDVHNE-NH2; N-terminus assumed), the concentration for a half-maximal effect (EC50) stood at 0.12 nM. Besides, the hPTHR-2/hPTHR-1 (Table 3, ratio of EC50 values) is listed as 474.
